Where a name gives a salt, the structure may show the parent alone.
How the values were obtained:
[1] = tested on: skin sympathetic nerve; assay: Psoriasis model with skin sympathetic nerve ablation (intradermal 6-OHDA before IMQ); assay type: in vivo, mice; conditions: intradermal injection before IMQ treatment
Description: In the embodiment of the disclosure, the sympathectomy of local skin is as follows. […] of 6-hydroxydopamine (6-OHDA) are dissolved into 100 microliters (μL) of 0.1% ascorbic acid solution (diluted with 0.9% sterile sodium chloride) to prepare a fresh sympathetic nerve ablation solution. Wild-type mice aged 7-8 weeks are selected to shave their back hair, and the exposed skin area is 2 centimeters (cm)×2 cm. Then, the mice are intradermally injected with 100 μL fresh sympathetic nerve ablation solution, controls are injected with an injecting control agent (100 μL of 0.1% ascorbic acid solution).

[2] = tested on: catecholaminergic neurons; conditions: intraperitoneal injection; cited from earlier work
[3] = tested on: IMQ-induced mice; assay: IMQ-induced psoriasis mouse model smeared with β1-AR antagonist/agonist; assay type: in vivo
Description: In the embodiment of the disclosure, the construction of psoriasis mouse model smeared with β1-AR antagonist/agonist is as follows. 5 μL of β1-AR antagonist/agonist storage solution (40 mg/mL, DMSO solvent) is taken and dissolved in 95 μL of 20% sulfobutylether-beta-cyclodextrin derivative (SBE-β-CD) solution (diluted with sterile sodium chloride) to prepare 2 mg/mL antagonist/agonist diluent. Wild-type mice aged 7-8 weeks are selected to shave their back hair, and the exposed skin area is 2 cm×2 cm. The mice are applied with 100 μL of the antagonist/agonist diluent, and controls are smeared with a smearing control agent (i.e., 5 μL DMSO+95 μL 20% SBE-β-CD solution).

[4] = tested on: primary γδT cells; assay: IL17A/F transcription in primary γδT cells stimulated by IL-23 and ACE/DOB; assay type: cell-based, mice; conditions: primary γδT cells activated by IL-23; DOB at high concentration
Excerpt: (§1) In the embodiment of the disclosure, in order to study how to ADRB1 regulates the inflammatory response of γδT cells, high-purity primary γδT cells are isolated from the spleen of mice by magnetic bead sorting kit, and stimulated with ADRB1 agonist and antagonist respectively.

[5] = tested on: NF-κB (P65); assay: Activation of NF-κB, AKT, p38, ERK in IL-23-activated primary γδT cells; assay type: cell-based, mice
Excerpt: as §1

[6] = tested on: NF-κB; assay: NF-κB phosphorylation in skin of IMQ-induced psoriatic mice; assay type: in vivo
[7] = tested on: γδT-cell deficient mice (Tcrd−/−); assay: DOB applied to skin of γδT-cell deficient mice (Tcrd−/−); assay type: in vivo
Excerpt: Combined with the previous results, it is verified that NE in skin is mainly derived from skin sympathetic nerve and mediates the release IL-17 from γδT cells rather than αβT cells through NE-ADRB1 signaling pathway.

[8] = Neurotransmitter content (ELISA) and TH phosphorylation (western blot) in IMQ-treated mice; assay type: in vivo
[9] = tested on: β1-AR; assay: Proportion of β1-AR+ T cells in skin of IMQ-treated mice (immunofluorescence and flow cytometry); assay type: in vivo
Excerpt: In the embodiment of the disclosure, immunofluorescence and flow cytometry are used to detect β1-AR is mainly expressed in IL-17A-producing γδT cells (also referred to as γδT-17 cells), as shown in FIG. 14.

[10] = tested on: IMQ-induced mice; assay: Psoriasis model with subcutaneous norepinephrine (NE) injection; assay type: in vivo; conditions: subcutaneous injection while IMQ is smeared
Description: In the embodiment of the disclosure, the construction of psoriasis model injected with norepinephrine (NE) is as follows. 6 μL of norepinephrine storage solution (10 millimoles per liter, abbreviated mM) is dissolved into 100 μL of 1 xphosphate-buffered saline (also referred to as 1×PBS, specifically prepared by a commonly used 1× phosphate buffered saline recipe), and […] NE diluent is prepared. Wild-type mice aged 7-8 weeks are selected to shave their back hair, and the exposed skin area is 2 cm×2 cm. Then, the mice are subcutaneously injected with 100 μL NE diluent, and controls are injected with an injecting control agent (6 μL dimethyl sulfoxide, abbreviated DMSO+100 μL PBS).

[11] = tested on: Dendritic cells (DCs); conditions: cited from earlier work; for IL-17A induced by stimulated DCs / production of IFN-γ by CD4 cells: DCs in mice stimulated
[12] = psoriatic mice treated with IMQ vs control mice treated with VAS

With NCCc1cc(O)c(O)cc1O [6-OHDA, 6-hydroxydopamine] the “IL-17A+γδT cells in sympathetic denervated skin” value [1] was “decreased”, the “NE in sympathetic denervated skin” value [1] was “decrease” and the “psoriasis-like phenotype of mice induced by IMQ” value ([1]; removal of skin sympathetic nerve) was “reduces”. The “IMQ induced ear swelling” value [2] was “reduce” and the “production of IL-17” value [2] was “does not affect”.
In the case of CCCC(=O)Nc1ccc(OCC(O)CNC(C)C)c(C(C)=O)c1 (stereo not drawn) [ACE, acebutolol hydrochloride], the “proportion of γδT-17 cells in the skin” value ([3]; IMQ-induced mice smeared with drug) is reported as “reduced”, the “transcription of IL17A” value [4] is reported as “decreases” and the “transcription of IL17F” value [4] is reported as “decreases”. The “NF-κB (P65) phosphorylation” value [5] was “inhibits”, the “activation of P38, ERK, JNK and AKT” value [5] was “do not affect” and the “activation of NF-κB (phosphorylation) in the skin” value [6] was “inhibition”.
In the case of CC(CCc1ccc(O)cc1)NCCc1ccc(O)c(O)c1 (stereo not drawn) [DOB, dobutamine hydrochloride], the “IL-17A production of γδT cells in the skin” value ([3]; IMQ-induced mice) is reported as “promotes”, the “back skin thickness, erythema, and scaling” value ([3]; IMQ-induced mice smeared with drug, compared with the control group) is reported as “increased” and the psoriasis-like phenotype ([3]; IMQ-induced mice, smeared on back skin, 100 μL of 2 mg/mL diluent, 4 consecutive days, compared with the control group) is reported as “aggravated”. The “IL-17 producing capacity αβT cells” value [7] was “no effect”, the “promoting effects on the psoriasis-like phenotype and inflammatory infiltration” value ([7]; lack of γδT cells) was “offset” and the “transcription of IL17A” value [4] was “increase”. The “transcription of IL17F” value [4] was “increase”, the “NF-κB (P65) phosphorylation” value [5] was “significantly increases” and the “activation of P38, ERK, JNK and AKT” value [5] was “do not affect”. For the same compound, the “activation of NF-κB (phosphorylation) in the skin” value [6] was “enhances”.
For CC(C)Cn1cnc2c(N)nc3ccccc3c21 [IMQ, imiquimod], the “NE content in both skin and serum” value [8, 12] was “higher”, the “dopamine in skin and serum” value [8, 12] was “no difference” and the “TH phosphorylation in mouse skin” value ([8]; western blot) was “significant up-regulation”. The “proportion of β1-AR+ cells in γδT cells in the skin” value ([9]; IMQ-treated vs VAS treated mice) was “significantly higher” and the “proportion of β1-AR+ cells in αβT cells in the skin” value ([9]; VAS-treated vs IMQ-treated mice) was “no significant difference”.
For NC[C@H](O)c1ccc(O)c(O)c1 [NE, norepinephrine], the “proportion of IL-17A+γδT cells in the skin of mice” value [10] is given as “increases”, the “psoriasis-like phenotype of mice induced by IMQ” value ([10]; 4 days) is given as “exacerbates” and the “IL-17A induced by stimulated DCs” value [11] is given as “induce”. For the same compound, the “production of IFN-γ by CD4 cells” value [11] was “reducing”.
In the case of CC(C)(C)NCC(O)c1ccc(O)c(CO)c1 (stereo not drawn) [salbutamol], the “IL-23 production by DCs” value ([11]; DCs from treated mice) is given as “more”, the “IL-17A induced by stimulated DCs” value [11] is given as “induce” and the “production of IFN-γ by CD4 cells” value [11] is given as “reducing”.

— patent US20240100000A1, “APPLICATION OF ADRB1 ACTIVE INHIBITOR IN PREPARING PREPARATION OR AS PREPARATION FOR TREATING PSORIASIS” (priority 2022, published 2024)
